Biological target: Light-dependent protochlorophyllide oxidoreductase (AtLPOR)
Assay: Plant LPOR ELISA kit on Arabidopsis leaf extract, IC50
Format: biochemical, Arabidopsis thaliana

| IC50 [µM] | Structure (SMILES) |
| --- | --- |
| 83.6 | O=[N+]([O-])c1cccc(-c2noc(COCc3ccccc3)n2)c1 [5k, 5-((benzyloxy)methyl)-3-(3-nitrophenyl)-1,2,4-oxadiazole] |
| 17.6 | c1ccc(COCc2nc(-c3ccc(OCc4ccccc4)cc3)no2)cc1 [5q, 5-((benzyloxy)methyl)-3-(4-(benzyloxy)phenyl)-1,2,4-oxadiazole] |
| 111 | O=[N+]([O-])c1ccc(-c2noc(COCc3ccccc3)n2)cc1 [5j, 5-((benzyloxy)methyl)-3-(4-nitrophenyl)-1,2,4-oxadiazole] |

From PMC12526218, “Design, Synthesis and Herbicidal Activity of 1,2,4-Oxadiazole Compounds as Novel Light-Dependent Protochlorophyllide Oxidoreductase Inhibitors” (Molecules, 2025)
